According to patent US8921376B2, “Pyrrolopyridines useful as inhibitors of protein kinase” (Vertex Pharmaceuticals Incorporated, priority 2005, dated 2014):

Assays:
Assay type in all cases: biochemical
[1] = molecular target: T1, JAK3 (Homo sapiens, UniProt P52333); assay: JAK3 inhibition assay (33P incorporation into poly(Glu)4Tyr)
T1 sequence (P52333 1-1124): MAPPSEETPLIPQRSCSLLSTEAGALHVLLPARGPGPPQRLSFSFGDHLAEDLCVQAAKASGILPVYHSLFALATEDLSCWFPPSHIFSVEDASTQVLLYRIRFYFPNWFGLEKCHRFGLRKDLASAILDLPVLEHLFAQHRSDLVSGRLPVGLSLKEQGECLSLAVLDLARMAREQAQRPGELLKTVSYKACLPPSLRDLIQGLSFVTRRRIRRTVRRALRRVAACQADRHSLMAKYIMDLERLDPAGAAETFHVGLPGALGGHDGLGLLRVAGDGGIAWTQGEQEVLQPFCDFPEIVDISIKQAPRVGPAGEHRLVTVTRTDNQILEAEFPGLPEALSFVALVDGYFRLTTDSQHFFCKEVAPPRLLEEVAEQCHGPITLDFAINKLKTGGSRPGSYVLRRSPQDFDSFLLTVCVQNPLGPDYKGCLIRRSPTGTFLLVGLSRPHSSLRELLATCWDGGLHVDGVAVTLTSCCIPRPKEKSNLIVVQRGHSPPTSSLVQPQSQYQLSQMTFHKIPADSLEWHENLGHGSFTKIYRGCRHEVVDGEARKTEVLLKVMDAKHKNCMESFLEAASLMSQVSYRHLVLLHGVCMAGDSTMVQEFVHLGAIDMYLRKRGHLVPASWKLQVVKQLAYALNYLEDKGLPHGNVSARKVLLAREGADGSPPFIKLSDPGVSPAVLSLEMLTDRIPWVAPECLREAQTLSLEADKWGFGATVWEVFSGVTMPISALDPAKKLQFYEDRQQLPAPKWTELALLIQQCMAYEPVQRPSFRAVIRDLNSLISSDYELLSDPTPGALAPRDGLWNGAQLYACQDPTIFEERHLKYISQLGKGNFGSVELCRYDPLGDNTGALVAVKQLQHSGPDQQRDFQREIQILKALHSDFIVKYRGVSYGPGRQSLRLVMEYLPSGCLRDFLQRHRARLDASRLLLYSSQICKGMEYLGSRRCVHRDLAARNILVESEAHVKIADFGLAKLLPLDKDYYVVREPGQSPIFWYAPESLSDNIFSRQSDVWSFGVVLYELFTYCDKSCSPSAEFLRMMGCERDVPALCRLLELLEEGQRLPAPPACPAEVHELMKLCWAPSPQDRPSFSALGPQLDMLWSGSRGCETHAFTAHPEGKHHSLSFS
Summary of the method: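 After TCA quench and filter harvest, scintillation counting of 33P measured phosphorylation of poly(Glu)4Tyr (1 μM) by 1 nM JAK3. The 20-min, 25° C. reaction contained 5 μM ATP (200 μCi/μmole) in pH 7.4 HEPES buffer with 10 mM MgCl2.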

[2] = molecular target: JAK2 (Homo sapiens, UniProt O60674); assay: JAK2 inhibition assay (as Example 3 with JAK-2 enzyme)
Summary of the method: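 In HEPES pH 7.4 buffer with 10 mM MgCl2, 1 mM DTT, 25 mM NaCl and 0.01% BSA, JAK2 enzyme phosphorylated poly(Glu)4Tyr (final 15 μM) using 33P-ATP (final 12 μM) for 20 min at room temperature (25 °C). Reactions stopped with TCA; incorporated 33P measured by scintillation after filtration.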

[3] = molecular target: ROCK I (Homo sapiens, UniProt Q13464); assay: ROCK-I inhibition assay (radioactive enzyme assay, MBP substrate)
Summary of the method: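 Human ROCK at 5 nM phosphorylated 27 μM myelin basic protein with 13 μM [γ-33P]ATP (final) in HEPES pH 7.5, MgCl2, NaCl, DTT and 1.5% DMSO. Reactions ran 2 h at room temperature before TCA quench and filter-plate scintillation counting. After background subtraction, data were fit to give Ki(app).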

[4] = Table 6, enzyme inhibition data (Ki)
[5] = enzyme inhibition, Ki(app), Table 5

Chain of ROCK I (Q13464 whole entry): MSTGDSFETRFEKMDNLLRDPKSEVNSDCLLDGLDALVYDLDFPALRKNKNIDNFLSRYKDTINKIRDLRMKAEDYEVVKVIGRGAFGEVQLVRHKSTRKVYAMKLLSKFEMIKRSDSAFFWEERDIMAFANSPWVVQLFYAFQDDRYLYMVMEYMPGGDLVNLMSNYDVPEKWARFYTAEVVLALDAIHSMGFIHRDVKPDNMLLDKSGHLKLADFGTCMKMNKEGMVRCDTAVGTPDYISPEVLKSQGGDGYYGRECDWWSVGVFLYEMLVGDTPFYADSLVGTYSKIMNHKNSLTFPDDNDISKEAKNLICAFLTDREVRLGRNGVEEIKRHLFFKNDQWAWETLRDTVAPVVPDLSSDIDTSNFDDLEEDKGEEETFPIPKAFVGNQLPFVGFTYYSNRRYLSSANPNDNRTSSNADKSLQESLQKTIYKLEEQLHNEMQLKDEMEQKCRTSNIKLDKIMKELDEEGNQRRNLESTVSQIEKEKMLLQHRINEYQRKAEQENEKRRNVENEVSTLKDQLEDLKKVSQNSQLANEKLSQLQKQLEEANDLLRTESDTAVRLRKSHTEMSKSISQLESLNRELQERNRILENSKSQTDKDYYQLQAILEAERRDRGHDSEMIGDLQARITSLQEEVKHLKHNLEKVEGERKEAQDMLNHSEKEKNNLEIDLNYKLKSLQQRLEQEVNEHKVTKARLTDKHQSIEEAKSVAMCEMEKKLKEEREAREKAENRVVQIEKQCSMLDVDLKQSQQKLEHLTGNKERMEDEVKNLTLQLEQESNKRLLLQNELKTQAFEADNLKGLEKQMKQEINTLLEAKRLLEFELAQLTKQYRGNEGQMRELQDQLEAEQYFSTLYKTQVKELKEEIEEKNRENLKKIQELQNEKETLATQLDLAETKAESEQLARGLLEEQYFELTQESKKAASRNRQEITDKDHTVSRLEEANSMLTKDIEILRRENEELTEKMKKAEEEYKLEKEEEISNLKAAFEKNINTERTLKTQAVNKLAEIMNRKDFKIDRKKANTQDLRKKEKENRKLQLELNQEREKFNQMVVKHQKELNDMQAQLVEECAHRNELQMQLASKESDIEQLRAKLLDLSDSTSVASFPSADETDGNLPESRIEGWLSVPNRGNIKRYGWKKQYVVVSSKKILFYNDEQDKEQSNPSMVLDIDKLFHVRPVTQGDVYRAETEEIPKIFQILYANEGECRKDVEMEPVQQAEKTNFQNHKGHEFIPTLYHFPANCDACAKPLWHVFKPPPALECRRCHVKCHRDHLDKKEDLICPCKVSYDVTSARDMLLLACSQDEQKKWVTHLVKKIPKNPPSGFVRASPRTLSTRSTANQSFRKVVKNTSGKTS
Chain of JAK2 (O60674 whole entry): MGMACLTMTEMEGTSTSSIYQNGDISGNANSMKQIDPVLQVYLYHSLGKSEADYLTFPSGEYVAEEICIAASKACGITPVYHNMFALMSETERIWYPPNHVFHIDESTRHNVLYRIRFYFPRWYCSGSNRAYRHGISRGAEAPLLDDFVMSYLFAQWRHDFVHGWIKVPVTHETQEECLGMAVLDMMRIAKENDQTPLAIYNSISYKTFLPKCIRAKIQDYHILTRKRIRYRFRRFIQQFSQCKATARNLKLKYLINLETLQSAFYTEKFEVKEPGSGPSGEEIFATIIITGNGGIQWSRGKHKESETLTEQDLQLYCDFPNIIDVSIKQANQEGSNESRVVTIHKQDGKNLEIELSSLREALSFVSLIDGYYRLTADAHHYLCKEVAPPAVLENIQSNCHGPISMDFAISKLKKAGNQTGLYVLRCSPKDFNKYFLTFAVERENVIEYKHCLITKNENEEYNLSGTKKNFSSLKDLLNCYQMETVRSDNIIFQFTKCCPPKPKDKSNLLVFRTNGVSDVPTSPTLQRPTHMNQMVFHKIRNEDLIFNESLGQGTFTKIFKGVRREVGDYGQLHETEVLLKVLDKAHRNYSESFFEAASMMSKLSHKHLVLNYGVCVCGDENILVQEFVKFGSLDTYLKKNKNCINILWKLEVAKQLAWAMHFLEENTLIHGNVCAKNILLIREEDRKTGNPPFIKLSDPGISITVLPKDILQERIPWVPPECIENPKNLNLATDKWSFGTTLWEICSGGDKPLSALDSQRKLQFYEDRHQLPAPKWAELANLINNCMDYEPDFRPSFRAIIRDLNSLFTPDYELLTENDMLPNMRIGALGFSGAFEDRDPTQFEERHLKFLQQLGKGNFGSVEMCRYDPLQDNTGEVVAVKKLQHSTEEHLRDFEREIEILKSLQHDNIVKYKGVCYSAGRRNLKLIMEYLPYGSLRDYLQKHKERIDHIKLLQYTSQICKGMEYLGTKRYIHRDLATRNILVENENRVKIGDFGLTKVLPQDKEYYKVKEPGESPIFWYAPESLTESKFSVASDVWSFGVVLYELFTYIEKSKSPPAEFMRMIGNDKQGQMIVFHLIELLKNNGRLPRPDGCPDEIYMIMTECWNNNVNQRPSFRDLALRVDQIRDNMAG

| Ki [1, 4] | Ki [2, 4] | Ki [3, 4] | Ki ([1]; enzyme inhibition, Table 5) | Ki ([2]; enzyme inhibition, Table 5) | Ki [3, 5] | Compound |
| --- | --- | --- | --- | --- | --- | --- |
| < 500 nM | < 500 nM | < 500 nM |  |  |  | C#CCNC(=O)c1cc(-c2ccnc3[nH]ccc23)c[nH]1 [compound 294] |
| < 500 nM | < 500 nM | < 500 nM |  |  |  | CC(C)CC(=O)Nc1nc(-c2ccnc3[nH]ccc23)cs1 [compound 378] |
|  |  |  | 500 to 5000 nM | 500 to 5000 nM | 500 to 5000 nM | CC(=O)N1CC=C(c2ccnc3[nH]ccc23)CC1 [compound 64] |
|  |  |  | 500 to 5000 nM | < 500 nM | < 500 nM | CC1CCCN(c2cccc(-c3ccnc4[nH]ccc34)n2)C1 (stereo not drawn) [compound 25, 4-(6-(3-Methylpiperidin-1-yl)pyridin-2-yl)-1H-pyrrolo[2,3-b]pyridine] |
| 500 to 5000 nM | > 5000 nM | < 500 nM |  |  |  | Cc1ccc(-c2ccnc3[nH]ccc23)c(C)c1 [compound 218] |

Further lines, the molecule ahead of its results:

| Compound | Ki [1, 4] | Ki [2, 4] | Ki [3, 4] | Ki ([1]; enzyme inhibition, Table 5) | Ki ([2]; enzyme inhibition, Table 5) | Ki [3, 5] |
| --- | --- | --- | --- | --- | --- | --- |
| O=S(=O)(C1CC1)N1CC[C@H](Nc2c(Cl)cnc3[nH]ccc23)C1 [compound 179] | < 500 nM | < 500 nM | > 4000 nM |  |  |  |
| N#CC1(c2cccc(-c3ccnc4[nH]ccc34)n2)CCCCC1 [compound 103, 1-(6-(1H-pyrrolo[2,3-b]pyridin-4-yl)pyridin-2-yl)cyclohexanecarbonitrile] |  |  |  | < 500 nM | < 500 nM | < 500 nM |
| CN(CC(O)c1ccccc1)c1cccc(-c2ccnc3[nH]ccc23)n1 (stereo not drawn) [compound 55, 2-(N-(6-(1H-pyrrolo[2,3-b]pyridin-4-yl)pyridin-2-yl)-N-methylamino)1-phenylethanol] |  |  |  | 500 to 5000 nM | < 500 nM | < 500 nM |
| c1cc(-c2ccnc3[nH]ccc23)c2ccoc2c1 [compound 115, 4-Benzofuran-4-yl-1H-pyrrolo[2,3-b]pyridine] |  |  |  | < 500 nM | < 500 nM | < 500 nM |
